According to US11111251B2, “Positive allosteric modulators of the muscarinic acetylcholine receptor M1” (Vanderbilt University, priority 2016, dated 2021):

Molecular target: T1, human mAChR M1 (Homo sapiens, UniProt P11229)
T1 sequence (P11229 1-460): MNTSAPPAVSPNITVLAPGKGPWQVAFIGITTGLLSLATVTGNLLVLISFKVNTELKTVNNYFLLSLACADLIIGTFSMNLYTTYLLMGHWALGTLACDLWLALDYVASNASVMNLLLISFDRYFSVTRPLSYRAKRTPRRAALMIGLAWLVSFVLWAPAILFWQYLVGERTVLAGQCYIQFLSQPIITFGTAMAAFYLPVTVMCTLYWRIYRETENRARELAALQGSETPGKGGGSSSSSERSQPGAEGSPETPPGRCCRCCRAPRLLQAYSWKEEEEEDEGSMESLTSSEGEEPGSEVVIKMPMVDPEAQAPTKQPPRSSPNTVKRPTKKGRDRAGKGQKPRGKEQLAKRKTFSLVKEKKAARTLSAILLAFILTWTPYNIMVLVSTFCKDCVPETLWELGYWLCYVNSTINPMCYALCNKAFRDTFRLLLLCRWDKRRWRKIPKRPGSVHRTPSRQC
Experiment: mAChR M1 cell-based functional assay: calcium mobilization, positive allosteric modulator mode (increase in EC20 acetylcholine response)
Details: Table 2, human M1; for EC50: read-out: Human M1 EC50; for Emax: read-out: Human M1 Emax (%)
In short: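 Calcium-flux assay in CHO-K1 cells stably expressing human M1, loaded with Fluo-4 AM (50 min, 37 °C) and read at 1 Hz. Compound (11-point, 1:3 series) was added at 4 s, EC20 acetylcholine at 144 s and EC80 at 230 s. PAM activity is the concentration-dependent rise in the EC20 response, fitted with a four-parameter logistic.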

Structure (SMILES): C[C@H]1COCC[C@@H]1NC(=O)c1cc(Cc2ccc(-c3cncs3)cc2)c2sccc2n1 [Compound 393, N-[(3R,4S)-3-methyltetrahydropyran-4-yl]-7-[(4-thiazol-5-ylphenyl)methyl]thieno[3,2-b]pyridine-5-carboxamide]
- EC50: 1340 nM
- Emax: 68.7%

Structure (SMILES): O=C(NC1CCOCC1)c1cc(Cc2ccc(-c3cncs3)cc2)c2sccc2n1 [Compound 394, N-tetrahydropyran-4-yl-7-[(4-thiazol-5-ylphenyl)methyl]thieno[3,2-b]pyridine-5-carboxamide]
- EC50: 233 nM
- Emax: 65.5%

Structure (SMILES): O=C(N[C@H]1CCCC[C@@H]1O)c1cc(Cc2ccc(-c3cncs3)cc2)c2sccc2n1 [Compound 395, N-[(1S,2S)-2-hydroxycyclohexyl]-7-[(4-thiazol-5-ylphenyl)methyl]thieno[3,2-b]pyridine-5-carboxamide]
- EC50: 18.5 nM
- Emax: 60.1%

Structure (SMILES): O=C(NCC1CCOC1)c1cc(Cc2ccc(-c3cncs3)cc2)c2sccc2n1 (stereo not drawn) [Compound 396, N-(tetrahydrofuran-3-ylmethyl)-7-[(4-thiazol-5-ylphenyl)methyl]thieno[3,2-b]pyridine-5-carboxamide]
- EC50: 1060 nM
- Emax: 63%

Structure (SMILES): O=C(N[C@H]1CCC[C@@H]1O)c1cc(Cc2ccc(-c3cncs3)cc2)c2sccc2n1 [Compound 397, N-[(1S,2S)-2-hydroxycyclopentyl]-7-[(4-thiazol-5-ylphenyl)methyl]thieno[3,2-b]pyridine-5-carboxamide]
- EC50: 111 nM
- Emax: 59.6%

Structure (SMILES): O=C(NC1CC2(COC2)C1)c1cc(Cc2ccc(-c3cncs3)cc2)c2sccc2n1 [Compound 398, N-(2-oxaspiro[3.3]heptan-6-yl)-7-[(4-thiazol-5-ylphenyl)methyl]thieno[3,2-b]pyridine-5-carboxamide]
- EC50: 438 nM
- Emax: 60.9%

Structure (SMILES): O=C(N[C@H]1CCOC1)c1cc(Cc2ccc(-c3cncs3)cc2)c2sccc2n1 [Compound 399, N-[(3S)-tetrahydrofuran-3-yl]-7-[(4-thiazol-5-ylphenyl)methyl]thieno[3,2-b]pyridine-5-carboxamide]
- EC50: 4310 nM
- Emax: 45.1%

Structure (SMILES): O=C(N[C@@H]1CCOC1)c1cc(Cc2ccc(-c3cncs3)cc2)c2sccc2n1 [Compound 400]
- EC50: 4210 nM
- Emax: 51.4%

Structure (SMILES): O=C(NC1CC(F)C1)c1cc(Cc2ccc(-c3cncs3)cc2)c2sccc2n1 (stereo not drawn) [Compound 401, N-(3-fluorocyclobutyl)-7-[(4-thiazol-5-ylphenyl)methyl]thieno[3,2-b]pyridine-5-carboxamide]
- EC50: 4570 nM
- Emax: 40.5%

Structure (SMILES): O=C(NC1COC1)c1cc(Cc2ccc(-c3cncs3)cc2)c2sccc2n1 [Compound 402, N-(oxetan-3-yl)-7-[(4-thiazol-5-ylphenyl)methyl]thieno[3,2-b]pyridine-5-carboxamide]
- EC50: > 10000 nM
- Emax: 41.7%

Structure (SMILES): COCCNC(=O)c1cc(Cc2ccc(-c3cncs3)cc2)c2sccc2n1 [Compound 403, N-(2-methoxyethyl)-7-[(4-thiazol-5-ylphenyl)methyl]thieno[3,2-b]pyridine-5-carboxamide]
- EC50: 6980 nM
- Emax: 60.8%

Structure (SMILES): COCCCNC(=O)c1cc(Cc2ccc(-c3cncs3)cc2)c2sccc2n1 [Compound 404, N-(3-methoxypropyl)-7-[(4-thiazol-5-ylphenyl)methyl]thieno[3,2-b]pyridine-5-carboxamide]
- EC50: 3570 nM
- Emax: 56.7%

Structure (SMILES): O=C(N[C@H]1CC[C@@H]1O)c1cc(Cc2ccc(-c3cncs3)cc2)c2sccc2n1 [Compound 405]
- EC50: 428 nM
- Emax: 73.5%

Structure (SMILES): COCC(C)NC(=O)c1cc(Cc2ccc(-c3cncs3)cc2)c2sccc2n1 (stereo not drawn) [Compound 406, N-(2-methoxy-1-methyl-ethyl)-7-[(4-thiazol-5-ylphenyl)methyl]thieno[3,2-b]pyridine-5-carboxamide]
- EC50: 5050 nM
- Emax: 59.1%

Structure (SMILES): O=C(NC1CCOCC1)c1ccc(Cc2cc(C(=O)NC3CCOCC3)nc3ccsc23)cc1 [Compound 407, N-tetrahydropyran-4-yl-7-[[4-(tetrahydropyran-4-ylcarbamoyl)phenyl]methyl]thieno[3,2-b]pyridine-5-carboxamide]
- EC50: 368 nM
- Emax: 69.9%

Structure (SMILES): O=C(NC1CC(F)(F)C1)c1ccc(Cc2cc(C(=O)NC3CC(F)(F)C3)nc3ccsc23)cc1 [Compound 408, N-(3,3-difluorocyclobutyl)-7-[[4-[(3,3-difluorocyclobutyl)carbamoyl]phenyl]methyl]thieno[3,2-b]pyridine-5-carboxamide]
- EC50: 397 nM
- Emax: 45%

Structure (SMILES): CC1(C)CC(NC(=O)c2ccc(Cc3cc(C(=O)NC4CCOC(C)(C)C4)nc4ccsc34)cc2)CCO1 (stereo not drawn) [Compound 409, N-(2,2-dimethyltetrahydropyran-4-yl)-7-[[4-[(2,2-dimethyltetrahydropyran-4-yl)carbamoyl]phenyl]methyl]thieno[3,2-b]pyridine-5-carboxamide]
- EC50: 725 nM
- Emax: 68.8%

Structure (SMILES): Cn1ccc(-c2ccc(Cc3cc(C(=O)N[C@@H]4COCC[C@H]4O)nc4ccsc34)cn2)n1 [Compound 410]
- EC50: 56.2 nM
- Emax: 63.4%

Structure (SMILES): Cn1ccc(-c2ccc(Cc3cc(C(=O)N[C@H]4CCCCC[C@@H]4O)nc4ccsc34)cn2)n1 [Compound 411]
- EC50: 77 nM
- Emax: 57.6%

Structure (SMILES): Cn1ccc(-c2ccc(Cc3cc(C(=O)N[C@@H]4CC[C@H]4O)nc4ccsc34)cn2)n1 [Compound 412]
- EC50: 222 nM
- Emax: 69.1%

Structure (SMILES): Cn1ccc(-c2ccc(Cc3cc(C(=O)NC[C@H]4CCCO4)nc4ccsc34)cn2)n1 [Compound 413, 7-[[6-(1-methylpyrazol-3-yl)-3-pyridyl]methyl]-N-[[(2R)-tetrahydrofuran-2-yl]methyl]thieno[3,2-b]pyridine-5-carboxamide]
- EC50: 191 nM
- Emax: 72.5%

Structure (SMILES): Cn1ccc(-c2ccc(Cc3cc(C(=O)NC[C@@H]4CCCO4)nc4ccsc34)cn2)n1 [Compound 414, 7-[[6-(1-methylpyrazol-3-yl)-3-pyridyl]methyl]-N-[[(2S)-tetrahydrofuran-2-yl]methyl]thieno[3,2-b]pyridine-5-carboxamide]
- EC50: 703 nM
- Emax: 71.5%

Structure (SMILES): Cn1ccc(-c2ccc(Cc3cc(C(=O)NC4COC4)nc4ccsc34)cn2)n1 [Compound 415]
- EC50: 8350 nM
- Emax: 63%

Structure (SMILES): COCCNC(=O)c1cc(Cc2ccc(-c3ccn(C)n3)nc2)c2sccc2n1 [Compound 416, N-(2-methoxyethyl)-7-[[6-(1-methylpyrazol-3-yl)-3-pyridyl]methyl]thieno[3,2-b]pyridine-5-carboxamide]
- EC50: 1290 nM
- Emax: 71.4%

Structure (SMILES): Cn1ccc(-c2ccc(Cc3cc(C(=O)N[C@H]4CCOC4)nc4ccsc34)cn2)n1 [Compound 417, 7-[[6-(1-methylpyrazol-3-yl)-3-pyridyl]methyl]-N-[(3S)-tetrahydrofuran-3-yl]thieno[3,2-b]pyridine-5-carboxamide]
- EC50: 4650 nM
- Emax: 66.6%

Structure (SMILES): Cn1ccc(-c2ccc(Cc3cc(C(=O)N[C@@H]4CCOC4)nc4ccsc34)cn2)n1 [Compound 418, 7-[[6-(1-methylpyrazol-3-yl)-3-pyridyl]methyl]-N-[(3R)-tetrahydrofuran-3-yl]thieno[3,2-b]pyridine-5-carboxamide]
- EC50: 5130 nM
- Emax: 67%

Structure (SMILES): Cn1ccc(-c2ccc(Cc3cc(C(=O)NC4CC(F)C4)nc4ccsc34)cn2)n1 (stereo not drawn) [Compound 419, N-(3-fluorocyclobutyl)-7-[[6-(1-methylpyrazol-3-yl)-3-pyridyl]methyl]thieno[3,2-b]pyridine-5-carboxamide]
- EC50: 760 nM
- Emax: 70.1%
